Converted amounts (≈) assume the structure as drawn. The source made the active and inactive calls. The calls are words filed in the database; no cut-off is given here.
Tests used:
[1] = tested on: Staphylococcus aureus; experiment: Potency index, ratio of methicillin MIC to test compound MIC for methicillin-resistant Staphylococcus aureus ATCC BAA1720; assay type: functional
[2] = tested on: Escherichia coli; experiment: Antibacterial activity against Escherichia coli ATCC 25922 after 18 hrs by broth microdilution method; assay type: functional; conditions: ATCC 25922, 18 h
[3] = tested on: Staphylococcus aureus; experiment: Antibacterial activity against Staphylococcus aureus ATCC 29213 after 10 passages by broth microdilution method; assay type: functional, organism-based
[4] = Selectivity index, ratio of HC50 for human erythrocytes to MIC for methicillin-resistant Staphylococcus aureus ATCC BAA41; assay type: toxicity; conditions: read-out: Selectivity Index
[5] = tested on: Staphylococcus aureus; experiment: Antibacterial activity against methicillin-resistant Staphylococcus aureus isolate 5426 after 18 hrs by broth microdilution method; assay type: functional; conditions: isolate 5426, 18 h
[6] = tested on: Staphylococcus aureus; experiment: Ratio of MBC to MIC for methicillin-resistant Staphylococcus aureus ATCC 43300; assay type: functional
[7] = tested on: Staphylococcus aureus; experiment: Antibacterial activity against methicillin-resistant Staphylococcus aureus isolate 2671 after 18 hrs by broth microdilution method; assay type: functional; conditions: isolate 2671, 18 h
[8] = tested on: Staphylococcus aureus; experiment: Antibacterial activity against methicillin-resistant Staphylococcus aureus isolate 1610 after 18 hrs by broth microdilution method; assay type: functional; conditions: isolate 1610, 18 h
[9] = tested on: Staphylococcus aureus; experiment: Antibacterial activity against methicillin-resistant Staphylococcus aureus isolate 7864 after 18 hrs by broth microdilution method; assay type: functional; conditions: isolate 7864, 18 h
[10] = tested on: Enterococcus faecalis; experiment: Ratio of MBC to MIC for vancomycin-resistant Enterococcus faecalis ATCC 700221; assay type: functional
[11] = tested on: Staphylococcus aureus; experiment: Antibacterial activity against methicillin-resistant Staphylococcus aureus isolate 4548 after 18 hrs by broth microdilution method; assay type: functional; conditions: isolate 4548, 18 h
[12] = tested on: Enterococcus faecalis; experiment: Potency index, ratio of berberine MIC to test compound MIC for Enterococcus faecalis ATCC 29212; assay type: functional
[13] = tested on: Staphylococcus aureus; experiment: Antibacterial activity against methicillin-resistant Staphylococcus aureus isolate 7664 after 18 hrs by broth microdilution method; assay type: functional; conditions: isolate 7664, 18 h
[14] = tested on: Staphylococcus aureus; experiment: Potency index, ratio of methicillin MIC to test compound MIC for methicillin-resistant Staphylococcus aureus ATCC 33592; assay type: functional
[15] = tested on: Staphylococcus aureus; experiment: Antibacterial activity against methicillin-resistant Staphylococcus aureus isolate 3170 after 18 hrs by broth microdilution method; assay type: functional; conditions: isolate 3170, 18 h
[16] = tested on: Staphylococcus aureus; experiment: Antibacterial activity against methicillin-resistant Staphylococcus aureus isolate 5239 after 18 hrs by broth microdilution method; assay type: functional; conditions: isolate 5239, 18 h
[17] = tested on: Staphylococcus aureus; experiment: Antibacterial activity against Staphylococcus aureus ATCC 29213 after 18 hrs by broth microdilution method; assay type: functional; conditions: ATCC 29213, 18 h
[18] = tested on: Staphylococcus aureus; experiment: Potency index, ratio of berberine MIC to test compound MIC for Staphylococcus aureus ATCC 29213; assay type: functional
[19] = tested on: Staphylococcus aureus; experiment: Antibacterial activity against methicillin-resistant Staphylococcus aureus isolate 7449 after 18 hrs by broth microdilution method; assay type: functional; conditions: isolate 7449, 18 h
[20] = tested on: Staphylococcus aureus; experiment: Antibacterial activity against methicillin-resistant Staphylococcus aureus isolate 4023 after 18 hrs by broth microdilution method; assay type: functional; conditions: isolate 4023, 18 h
[21] = tested on: Staphylococcus aureus; experiment: Antibacterial activity against methicillin-resistant Staphylococcus aureus isolate 6515 after 18 hrs by broth microdilution method; assay type: functional; conditions: isolate 6515, 18 h
[22] = tested on: Enterococcus faecium; experiment: Potency index, ratio of berberine MIC to test compound MIC for Enterococcus faecium ATCC 49624; assay type: functional
[23] = tested on: Staphylococcus aureus; experiment: Antibacterial activity against methicillin-resistant Staphylococcus aureus isolate 5035 after 18 hrs by broth microdilution method; assay type: functional; conditions: isolate 5035, 18 h
[24] = tested on: Staphylococcus aureus; experiment: Antibacterial activity against methicillin-resistant Staphylococcus aureus isolate 1220 after 18 hrs by broth microdilution method; assay type: functional; conditions: isolate 1220, 18 h
[25] = Selectivity index, ratio of HC50 for human erythrocytes to MIC for methicillin-resistant Staphylococcus aureus ATCC 43300; assay type: toxicity; conditions: read-out: Selectivity Index
[26] = tested on: Staphylococcus aureus; experiment: Antibacterial activity against methicillin-resistant Staphylococcus aureus ATCC 33591 after 18 hrs by broth microdilution method; assay type: functional; conditions: ATCC 33591, 18 h
[27] = tested on: Staphylococcus aureus; experiment: Antibacterial activity against methicillin-resistant Staphylococcus aureus isolate 7971 after 18 hrs by broth microdilution method; assay type: functional; conditions: isolate 7971, 18 h
[28] = tested on: Staphylococcus aureus; experiment: Antibacterial activity against methicillin-resistant Staphylococcus aureus isolate 7960 after 18 hrs by broth microdilution method; assay type: functional; conditions: isolate 7960, 18 h
[29] = tested on: Staphylococcus aureus; experiment: Antibacterial activity against methicillin-resistant Staphylococcus aureus isolate 2158 after 18 hrs by broth microdilution method; assay type: functional; conditions: isolate 2158, 18 h
[30] = tested on: Staphylococcus aureus; experiment: Antibacterial activity against methicillin-resistant Staphylococcus aureus isolate 7863 after 18 hrs by broth microdilution method; assay type: functional; conditions: isolate 7863, 18 h
[31] = tested on: Staphylococcus aureus; experiment: Antibacterial activity against methicillin-resistant Staphylococcus aureus isolate 7916 after 18 hrs by broth microdilution method; assay type: functional; conditions: isolate 7916, 18 h
[32] = tested on: Staphylococcus aureus; experiment: Antibacterial activity against methicillin-resistant Staphylococcus aureus isolate 1428 after 18 hrs by broth microdilution method; assay type: functional; conditions: isolate 1428, 18 h
[33] = tested on: Staphylococcus aureus; experiment: Antibacterial activity against methicillin-resistant Staphylococcus aureus ATCC 33592 after 18 hrs by broth microdilution method; assay type: functional; conditions: ATCC 33592, 18 h
[34] = tested on: Staphylococcus aureus; experiment: Antibacterial activity against methicillin-resistant Staphylococcus aureus isolate 8162 after 18 hrs by broth microdilution method; assay type: functional; conditions: isolate 8162, 18 h
[35] = tested on: Staphylococcus aureus; experiment: Antibacterial activity against methicillin-resistant Staphylococcus aureus isolate 5395 after 18 hrs by broth microdilution method; assay type: functional; conditions: isolate 5395, 18 h
[36] = tested on: Staphylococcus aureus; experiment: Antibacterial activity against methicillin-resistant Staphylococcus aureus isolate 8179 after 18 hrs by broth microdilution method; assay type: functional; conditions: isolate 8179, 18 h
[37] = tested on: Enterococcus faecalis; experiment: Antibacterial activity against vancomycin-resistant Enterococcus faecalis ATCC 51575 after 18 hrs by broth microdilution method; assay type: functional; conditions: ATCC 51575, 18 h
[38] = tested on: Staphylococcus aureus; experiment: Antibacterial activity against methicillin-resistant Staphylococcus aureus isolate 8071 after 18 hrs by broth microdilution method; assay type: functional; conditions: isolate 8071, 18 h
[39] = tested on: Staphylococcus aureus; experiment: Antibacterial activity against methicillin-resistant Staphylococcus aureus isolate 7917 after 18 hrs by broth microdilution method; assay type: functional; conditions: isolate 7917, 18 h
[40] = tested on: Staphylococcus aureus; experiment: Antibacterial activity against methicillin-resistant Staphylococcus aureus isolate 7247 after 18 hrs by broth microdilution method; assay type: functional; conditions: isolate 7247, 18 h
[41] = tested on: Enterococcus faecalis; experiment: Bactericidal activity against vancomycin-resistant Enterococcus faecalis ATCC 700221 after 18 hrs by broth microdilution method; assay type: functional; conditions: ATCC 700221, 18 h

CC(C)c1ccc(CN2CCCN(CCc3cc(-c4cccs4)nc(-c4ccncc4)n3)CC2)cc1
Ratio [1]: >100
MIC90 [2]: 128 µg/mL (≈ 257 µM)
Activity [3]: Active
selectivity ratio [4]: > 32
MIC90 [5]: 2 µg/mL (≈ 4.02 µM)
Ratio [6]: 2
MIC90 [7]: 2 µg/mL (≈ 4.02 µM)
MIC90 [8]: 4 µg/mL (≈ 8.04 µM)
MIC90 [9]: 2 µg/mL (≈ 4.02 µM)
Ratio [10]: 2
MIC90 [11]: 2 µg/mL (≈ 4.02 µM)
Ratio [12]: 50 - 100
MIC90 [13]: 2 µg/mL (≈ 4.02 µM)
Ratio [14]: >100
MIC90 [15]: 2 µg/mL (≈ 4.02 µM)
MIC90 [16]: 2 µg/mL (≈ 4.02 µM)
MIC90 [17]: 2 µg/mL (≈ 4.02 µM)
Ratio [18]: 50 - 100
MIC90 [19]: 2 µg/mL (≈ 4.02 µM)
MIC90 [20]: 2 µg/mL (≈ 4.02 µM)
MIC90 [21]: 2 µg/mL (≈ 4.02 µM)
Ratio [22]: 50 - 100
MIC90 [23]: 2 µg/mL (≈ 4.02 µM)
MIC90 [24]: 2 µg/mL (≈ 4.02 µM)
selectivity ratio [25]: > 32
MIC90 [26]: 2 µg/mL (≈ 4.02 µM)
MIC90 [27]: 2 µg/mL (≈ 4.02 µM)
MIC90 [28]: 2 µg/mL (≈ 4.02 µM)
MIC90 [29]: 2 µg/mL (≈ 4.02 µM)
MIC90 [30]: 2 µg/mL (≈ 4.02 µM)
MIC90 [31]: 2 µg/mL (≈ 4.02 µM)
MIC90 [32]: 2 µg/mL (≈ 4.02 µM)
MIC90 [33]: 2 µg/mL (≈ 4.02 µM)
MIC90 [34]: 2 µg/mL (≈ 4.02 µM)
MIC90 [35]: 2 µg/mL (≈ 4.02 µM)
MIC90 [36]: 2 µg/mL (≈ 4.02 µM)
MIC90 [37]: 2 µg/mL (≈ 4.02 µM)
MIC90 [38]: 2 µg/mL (≈ 4.02 µM)
MIC90 [39]: 2 µg/mL (≈ 4.02 µM)
MIC90 [40]: 2 µg/mL (≈ 4.02 µM)
MBC [41]: 4 µg/mL (≈ 8.04 µM)

COc1cccc(OC)c1C(=O)N[C@@H]1C(=O)N2[C@@H]1SC(C)(C)[C@@H]2C(=O)O [METHICILLIN]
MIC90 [2]: 4 µg/mL (≈ 10.5 µM)
MIC90 [5]: > 64 µg/mL
MIC90 [7]: > 64 µg/mL
MIC90 [8]: > 64 µg/mL
MIC90 [9]: > 64 µg/mL
MIC90 [11]: > 64 µg/mL
MIC90 [13]: > 64 µg/mL
MIC90 [15]: > 64 µg/mL
MIC90 [16]: > 64 µg/mL
MIC90 [17]: 1 µg/mL (≈ 2.63 µM)
MIC90 [19]: > 64 µg/mL
MIC90 [20]: > 64 µg/mL
MIC90 [21]: > 64 µg/mL
MIC90 [23]: > 64 µg/mL
MIC90 [24]: > 64 µg/mL
MIC90 [26]: > 192 µg/mL
MIC90 [27]: > 64 µg/mL
MIC90 [28]: > 64 µg/mL
MIC90 [29]: > 64 µg/mL
MIC90 [30]: > 64 µg/mL
MIC90 [31]: > 64 µg/mL
MIC90 [32]: > 64 µg/mL
MIC90 [33]: > 192 µg/mL
MIC90 [34]: > 64 µg/mL
MIC90 [35]: > 64 µg/mL
MIC90 [36]: > 64 µg/mL
MIC90 [37]: 6 µg/mL (≈ 15.8 µM)
MIC90 [38]: > 64 µg/mL
MIC90 [39]: > 64 µg/mL
MIC90 [40]: > 64 µg/mL
